Columns and labels:
[1] = test system: human monocyte-derived macrophages (MDM) using THP-1 cells; experiment: Proinflammatory cytokines after Pg-LPS challenge (qRT-PCR, ELISA); type: cell-based; conditions: at 0.1 μg after Pg-LPS challenge
Description: (§1) Sg metabolites modulate proinflammatory cytokines in human periodontal associated cells in vitro. Sg were cultured in a total of 40 ml DMEM for 24 hrs. After 200 μl of Sg suspension reached 0.2 at OD600 value in a 96-well plate, the Sg metabolites were collected by centrifugation at 3000 g for 10 min and then filtered through a 0.22 μm filter. No toxicity of Sg metabolites was detected using an MTT assay on primary human bone marrow mesenchymal stromal cells (BMSCs) and primary human gingival fibroblasts (HGF) (data no shown). The modulation of Sg metabolites on inflammatory cytokines was tested using human monocyte-derived macrophages (MDM) and HGF. The MDM were generated by inducing a human macrophage cell line (THP-1) using PMA at 10 ng/ml. The MDM at 2×10^6 cells/per well and HGF at 2×10^4 cells/per well were cultured in 24-well plates using DMEM with 10% FBS and 1% PS. The Sg metabolites at 1 and 5% v/v were added and incubated for 24 hrs before challenging with Pg-LPS at 100 ng/ml.
(§2) Human monocyte-derived macrophages (MDM) using THP-1 cells and HGF were cultured in a 24-well plate with DMEM and challenged with Pg-LPS at 100 ng/ml.
(§3) In addition, freshly isolated epidydimal white adipose tissues (eWAT) from mice on a HFD for 16 weeks were minced and cultured in 24-well plates and treated with HCA at 0.5 and 1.0 μM in DMEM/F-12 containing 10% cosmic calf serum (CCS) and 1% penicillin-streptomycin (basal growth media, BGM). […] These preliminary data are strong evidence that Sg metabolites have the potential to modulate host inflammatory responses and attenuate inflammation.
HCA promotes proliferation of health related bacteria and inhibits proliferation and attachment of periodontopathogenic bacteria. Promoting the growth of health-related commensal bacteria while inhibiting proliferation and attachment of pathogenic bacteria may be effective at preventing or treating periodontal inflammation. To determine if HCA has an effect on the growth properties of commensal bacteria and periodontopathogens, HCA at different concentrations was added to aerobic culture of S. mitis and S. oralis and anaerobic culture of T. denticola as described in our published manuscript (see detail in Shu et al, Journal of Periodontology, 2022). FIGS. 18A-C summarize the functions of HCA on the proliferation of specific commensal and pathogenic bacteria. […] Furthermore, the function of HCA on P. gingivalis attachment, a key parameter of adhesion and biofilm formation by periodontopathogenic bacteria, was investigated. […] Attachment measurements of P. gingivalis were performed based on our published studies (see detail in Shu et al, Journal of Periodontology, 2022). […] To test the biocompatibility and anti-inflammatory properties of HCA, human monocyte-derived macrophages (MDM) and gingival fibroblasts (HGF) were prepared as described in our previous studies. The cells were then treated with HCA from 0.1 to 50 μM. No toxicity was observed after treatment with different concentrations of HCA in either cell type using an MTT assay (FIGS. 19A and B, left column). The anti-inflammatory function of HCA on MDM and HGF after exposure to P. gingivalis lipopolysaccharide (PG-LPS) was investigated. […] HCA mitigates inflammation and affects the composition of microbiomes in vivo. Recent studies investigated whether HCA modulates periodontal inflammation using a mouse model. To induce periodontal inflammation, a total of 1 μl Pg-LPS at 10 μg/μl was directly injected twice a week into the interdental region between maxillary molars of C57BL/6J mice using a Hamilton1700 series syringe according to our previously published studies. 100 μl of HCA at 0.5 μM was administrated I.P. three time a week. […] It was also tested whether HCA affects the composition of the microbiome in vivo. For this purpose, high fat diet-induced obese (DIO) mice (The Jackson Laboratory) received I.P, administration of 100 μl of HCA at 0.2 and 0.5 μM three times a week for 3 weeks. […]

HGF = experiment: Anti-inflammatory miR expression after Pg-LPS challenge; type: cell-based, human; conditions: 24 hours after Pg-LPS challenge
Description: (§4) FIGS. 11A-11B. Sg metabolites upregulate anti-inflammatory miRs in human macrophages and HGF. A-B: Relative transcript changes of miR-200c, 146a, and 21 in HGF (A) and human MDM (B) treated with AICAR, MA, HCA, and HPLA 24 hours after Pg-LPS challenge; performed in duplicate.

[2] = test system: human gingival fibroblasts (HGF); experiment: Proinflammatory cytokines after Pg-LPS challenge (qRT-PCR, ELISA, antibody array); type: cell-based; conditions: for proinflammatory cytokines (transcripts of IL-1β, 6 and 8): at 0.1 μg after Pg-LPS challenge
Description: as §1
(§5) L-Norleucine as well as other metabolites modulate proinflammatory cytokines in macrophages and HGF. L-Norleucine was obtained commercially (Sigma) and dissolved in DMEM. Mouse macrophages and human HGF were cultured with DMEM supplemented with different concentrations of L-Norleucine and subsequently challenged with Pg-LPS at 100 ng/ml.
as §2, §3
HCA promotes proliferation of health related bacteria and inhibits proliferation and attachment of periodontopathogenic bacteria. Promoting the growth of health-related commensal bacteria while inhibiting proliferation and attachment of pathogenic bacteria may be effective at preventing or treating periodontal inflammation. To determine if HCA has an effect on the growth properties of commensal bacteria and periodontopathogens, HCA at different concentrations was added to aerobic culture of S. mitis and S. oralis and anaerobic culture of T. denticola as described in our published manuscript (see detail in Shu et al, Journal of Periodontology, 2022). FIGS. 18A-C summarize the functions of HCA on the proliferation of specific commensal and pathogenic bacteria. […] Furthermore, the function of HCA on P. gingivalis attachment, a key parameter of adhesion and biofilm formation by periodontopathogenic bacteria, was investigated. […] Attachment measurements of P. gingivalis were performed based on our published studies (see detail in Shu et al, Journal of Periodontology, 2022). […] To test the biocompatibility and anti-inflammatory properties of HCA, human monocyte-derived macrophages (MDM) and gingival fibroblasts (HGF) were prepared as described in our previous studies. The cells were then treated with HCA from 0.1 to 50 μM. No toxicity was observed after treatment with different concentrations of HCA in either cell type using an MTT assay (FIGS. 19A and B, left column). The anti-inflammatory function of HCA on MDM and HGF after exposure to P. gingivalis lipopolysaccharide (PG-LPS) was investigated. […] HCA mitigates inflammation and affects the composition of microbiomes in vivo. Recent studies investigated whether HCA modulates periodontal inflammation using a mouse model. To induce periodontal inflammation, a total of 1 μl Pg-LPS at 10 μg/μl was directly injected twice a week into the interdental region between maxillary molars of C57BL/6J mice using a Hamilton1700 series syringe according to our previously published studies. […]

Human MDM = experiment: Anti-inflammatory miR expression after Pg-LPS challenge; type: cell-based; conditions: 24 hours after Pg-LPS challenge
Description: as §4
Human MDM was cultured in a 24-well plate and treated with HCA at different concentrations and Pg-LPS at 100 ng/mi for 24 hrs. […] (All data are presented as means±SEM. *: p<0.05 vs untreated, ANOVA).

Mouse macrophages = experiment: Proinflammatory cytokine transcripts after Pg-LPS challenge; type: cell-based
Description: as §5

[3] = L-Norleucine at 1 and 5 μM, Pg-LPS at 100 ng/ml

Structure (SMILES)	proinflammatory cytokines (IL-6 transcript and IL-6 protein in supernatants) [1]	anti-inflammatory miRs (miR-200c, 146a, and 21) (HGF)	proinflammatory cytokines (transcripts of IL-1β, 6 and 8) [2]	anti-inflammatory miRs (miR-200c, 146a, and 21) (Human MDM)	IL-6 and IL-8 in macrophages (Mouse macrophages; L-Norleucine)	transcripts of IL-1β, 6, and 8 (Mouse macrophages; [3])	transcripts of IL-1β, 6, and 8 [2, 3]
O=C(O)C(O)Cc1ccc(O)cc1 (stereo not drawn) [HPLA, 4-hydroxyphenyllactic acid]	modulate	upregulate	modulate	upregulate	–	–	–
O=C(O)CC(O)C(=O)O (stereo not drawn) [MA, malic acid]	modulate	upregulate	modulate	upregulate	–	–	–
CCCC[C@H](N)C(=O)O [L-Norleucine]	–	–	–	–	effectively downregulated	effectively downregulated	effectively downregulated
NC(=O)c1ncn([C@@H]2O[C@H](CO)[C@@H](O)[C@H]2O)c1N [AICAR, acadesine]	modulate	upregulate	modulate	upregulate	–	–	–
